Columns and labels:
[1] = test system: MDA-MB-468 (Breast cancer); test: cells; settings: Homo sapiens; for GI50: MDA-MB-468; for IC (TGI): MDA-MB-468, 48 h, read-out: TGI; for CC50: MDA-MB-468, read-out: LC50
[2] = test system: NCI-H23 (NSC lung cancer); test: NCI-60 screen (SRB, 48 h); settings: Homo sapiens; for GI50: NCI-H23; for IC (TGI): NCI-H23, 48 h, read-out: TGI
HCT-116 (Colon cancer) = test: NCI-60 screen (SRB, 48 h); settings: Homo sapiens; for GI50: HCT-116; for IC (TGI): read-out: TGI
HCT-15 (Colon cancer) = test: NCI-60 screen (SRB, 48 h); settings: Homo sapiens; for GI50: HCT-15; for IC (TGI): HCT-15, 48 h, read-out: TGI; for CC50: HCT-15, read-out: LC50
[3] = test system: NIH 3T3 (non-malignant mouse fibroblasts); test: SRB cytotoxicity assay, 72 h; type: cell-based; settings: Mus musculus, NIH3T3; NIH 3T3, 72 h, cut-off 30 µM; read-out: EC50
Summary of the method: (§1)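 Seed, 24 h; compound 0–30 µM serial dilutions, 72 h (DMSO ≤0.5%); fix 10% TCA, 4 °C; stain 0.4% SRB ~20 min; 1% AcOH wash; solubilise 10 mM Tris; A570. EC50 vs untreated.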

HOP-92 (NSC lung cancer) = test: NCI-60 screen (SRB, 48 h); settings: Homo sapiens; for GI50: HOP-92; for IC (TGI): HOP-92, 48 h, read-out: TGI; for CC50: HOP-92, read-out: LC50
IGROV1 (Ovarian cancer) = test: NCI-60 screen (SRB, 48 h); settings: for GI50 / IC (TGI) / CC50: Homo sapiens; for GI50: IGROV-1; for IC (TGI): IGROV-1, 48 h, read-out: TGI; for CC50: IGROV-1, read-out: LC50
[4] = test system: A549/ATCC (NSC lung cancer); test: NCI-60 screen (SRB, 48 h); settings: Homo sapiens; for GI50: A549; for IC (TGI): A549, 48 h, read-out: TGI; for CC50: A549, read-out: LC50
TK-10 (Renal cancer) = test: NCI-60 screen (SRB, 48 h); settings: Homo sapiens; for GI50: TK-10; for IC (TGI): TK-10, 48 h, read-out: TGI; for CC50: TK-10, read-out: LC50
Leukemia subpanel = test: cells; settings: Homo sapiens; for IC (TGI): 48 h, read-out: TGI MG_MID; for GI50: read-out: GI50 MG_MID; for CC50: read-out: LC50 MG_MID
U251 (CNS cancer) = test: NCI-60 screen (SRB, 48 h); settings: Homo sapiens; for GI50: U-251; for IC (TGI): U-251, 48 h, read-out: TGI; for CC50: U-251, read-out: LC50
[5] = test system: MDA-MB-31/ATCC (Breast cancer); test: NCI-60 screen (SRB, 48 h); settings: Homo sapiens; for IC (TGI): 48 h, read-out: TGI; for CC50: read-out: LC50
Colon Cancer subpanel = test: NCI-60 screen, subpanel; settings: Homo sapiens; for IC (TGI): 48 h, read-out: TGI MG_MID; for GI50: read-out: GI50 MG_MID; for CC50: read-out: LC50 MG_MID
CAKI-1 (Renal cancer) = test: NCI-60 screen (SRB, 48 h); settings: for Growth % of the Most Sensitive Cell Lines: CAKI-1, 1 dose 10 µM; for GI50 / IC (TGI) / CC50: Homo sapiens; for GI50: CAKI-1; for IC (TGI): CAKI-1, 48 h, read-out: TGI; for CC50: CAKI-1, read-out: LC50
SNB-19 (CNS cancer) = test: NCI-60 screen (SRB, 48 h); settings: Homo sapiens; for GI50: SNB-19; for IC (TGI): SNB-19, 48 h, read-out: TGI
MCF-7 (breast carcinoma) = test: SRB cytotoxicity assay, 72 h; type: cell-based, human; settings: Homo sapiens, MCF7; MCF-7, 72 h, cut-off 30 µM; read-out: EC50
Summary of the method: as §1

[6] = test system: HT29 (colorectal carcinoma); test: SRB cytotoxicity assay, 72 h; type: cell-based, human; settings: Homo sapiens, HT-29; HT29, 72 h, cut-off 30 µM; read-out: EC50
Summary of the method: as §1

[7] = test system: FaDu (hypopharyngeal carcinoma); test: SRB cytotoxicity assay, 72 h; type: cell-based, human; settings: Homo sapiens, cut-off 30 µM, read-out: EC50
Summary of the method: as §1

[8] = test system: A375 (malignant melanoma); test: SRB cytotoxicity assay, 72 h; type: cell-based, human; settings: Homo sapiens, A-375, 72 h, A375, 72 h, cut-off 30 µM; read-out: EC50
Summary of the method: as §1

[9] = test system: A2780 (ovarian carcinoma); test: SRB cytotoxicity assay, 72 h; type: cell-based, human; settings: Homo sapiens; A2780, 72 h, cut-off 30 µM; read-out: EC50
Summary of the method: as §1

SF-295 (CNS cancer) = test: NCI-60 screen (SRB, 48 h); settings: Homo sapiens; for GI50: SF-295; for IC (TGI): SF-295, 48 h, read-out: TGI; for CC50: SF-295, read-out: LC50
CCRF-CEM (Leukemia) = test: NCI-60 screen (SRB, 48 h); settings: Homo sapiens; for IC (TGI): 48 h, read-out: TGI; for CC50: read-out: LC50
OVCAR-5 (Ovarian cancer) = test: NCI-60 screen (SRB, 48 h); settings: for GI50: OVCAR-5; for IC (TGI): OVCAR-5, 48 h, read-out: TGI
MOLT-4 (Leukemia) = test: NCI-60 screen (SRB, 48 h); settings: Homo sapiens; for GI50: MOLT-4
SN12C (Renal cancer) = test: NCI-60 screen (SRB, 48 h); settings: Homo sapiens; for IC (TGI): 48 h, read-out: TGI; for CC50: read-out: LC50

CC1(C)NCCC[C@]2(C)[C@H]3C=CC4=C5C[C@@](C)(CO)CC[C@]5(C)CC[C@@]4(C)[C@]3(C)CC[C@@H]12 [Compound 6, azepano-glycyrrhetol-diene]
GI50 [1]: 10.4 µM
IC (TGI) [1]: 24 µM
CC50 [1]: 55.1 µM
GI50 [2]: 3.15 µM
IC (TGI) [2]: 12.5 µM
CC50 ([2]; NCI-H23, read-out: LC50): 40 µM
GI50 (HCT-116 (Colon cancer)): 2.73 µM
IC (TGI) (HCT-116 (Colon cancer); HCT-116, 48 h): 10.6 µM
CC50 (HCT-116 (Colon cancer); HCT-116, read-out: LC50): 52.9 µM
GI50 (HCT-15 (Colon cancer)): 4.21 µM
IC (TGI) (HCT-15 (Colon cancer)): 16.4 µM
CC50 (HCT-15 (Colon cancer)): 45.4 µM
EC50 [3]: 11.7 ± 1.4 µM
GI50 (HOP-92 (NSC lung cancer)): 3.1 µM
IC (TGI) (HOP-92 (NSC lung cancer)): 14.6 µM
CC50 (HOP-92 (NSC lung cancer)): 47 µM
GI50 (IGROV1 (Ovarian cancer)): 4.08 µM
IC (TGI) (IGROV1 (Ovarian cancer)): 14.8 µM
CC50 (IGROV1 (Ovarian cancer)): 46.6 µM
GI50 [4]: 1.89 µM
IC (TGI) [4]: 3.71 µM
CC50 [4]: 7.31 µM
GI50 (TK-10 (Renal cancer)): 2.66 µM
IC (TGI) (TK-10 (Renal cancer)): 7.15 µM
CC50 (TK-10 (Renal cancer)): 27.3 µM
IC (TGI) (Leukemia subpanel): 10.2 µM
GI50 (Leukemia subpanel): 3.02 µM
CC50 (Leukemia subpanel): 55.5 µM
GI50 (U251 (CNS cancer)): 4.17 µM
IC (TGI) (U251 (CNS cancer)): 15.9 µM
CC50 (U251 (CNS cancer)): 45.5 µM
GI50 [5]: 14.5 µM
IC (TGI) [5]: 29.3 µM
CC50 [5]: 59.2 µM
IC (TGI) (Colon Cancer subpanel): 16.7 µM
GI50 (Colon Cancer subpanel): 5.11 µM
CC50 (Colon Cancer subpanel): 48.2 µM
Growth % of the Most Sensitive Cell Lines (CAKI-1 (Renal cancer)): −96.49%
GI50 (CAKI-1 (Renal cancer)): 3.7 µM
IC (TGI) (CAKI-1 (Renal cancer)): 13.8 µM
CC50 (CAKI-1 (Renal cancer)): 39.3 µM
GI50 (SNB-19 (CNS cancer)): 11.6 µM
IC (TGI) (SNB-19 (CNS cancer)): 25.3 µM
CC50 (SNB-19 (CNS cancer); SNB-19, read-out: LC50): 55.2 µM
EC50 (MCF-7 (breast carcinoma)): 7.1 ± 0.5 µM
EC50 [6]: 4.84 ± 0.5 µM
EC50 [7]: 4.44 ± 0.6 µM
EC50 [8]: 6.65 ± 0.3 µM
EC50 [9]: 3.93 ± 0.5 µM
GI50 (SF-295 (CNS cancer)): 2 µM
IC (TGI) (SF-295 (CNS cancer)): 4.04 µM
CC50 (SF-295 (CNS cancer)): 8.15 µM
GI50 (CCRF-CEM (Leukemia)): 3.52 µM
IC (TGI) (CCRF-CEM (Leukemia)): 14.5 µM
CC50 (CCRF-CEM (Leukemia)): 65.3 µM
GI50 (OVCAR-5 (Ovarian cancer); Homo sapiens): 1.24 µM
IC (TGI) (OVCAR-5 (Ovarian cancer); Homo sapiens): 25.3 µM
CC50 (OVCAR-5 (Ovarian cancer); Homo sapiens, OVCAR-5, read-out: LC50): 51.6 µM
Growth % of the Most Sensitive Cell Lines (OVCAR-5 (Ovarian cancer); OVCAR-5, 1 dose 10 µM): −98.74%
GI50 (MOLT-4 (Leukemia)): 2.46 µM
IC (TGI) (MOLT-4 (Leukemia); MOLT-4, 48 h, read-out: TGI): 6.8 µM
CC50 (MOLT-4 (Leukemia); MOLT-4, read-out: LC50): 38.2 µM
GI50 (SN12C (Renal cancer)): 3.34 µM
IC (TGI) (SN12C (Renal cancer)): 12 µM
CC50 (SN12C (Renal cancer)): 41.7 µM

C=C(C)[C@@H]1CCC=C2CC[C@]3(C)[C@H](CC[C@@H]4[C@@]5(C)CCCNC(C)(C)[C@@H]5CC[C@]43C)[C@H]21 [Compound 8]
GI50 [1]: 1.78 µM
IC (TGI) [1]: 3.43 µM
CC50 [1]: 6.6 µM
GI50 [2]: 1.83 µM
IC (TGI) [2]: 3.4 µM
GI50 (HCT-116 (Colon cancer)): 1.37 µM
activity at 10 µM (HCT-116 (Colon cancer); HCT-116, 48 h, read-out: Growth % of the Most Sensitive Cell Lines): -96.2%
IC (TGI) (HCT-116 (Colon cancer); HCT-116, 48 h): 2.82 µM
GI50 (HCT-15 (Colon cancer)): 1.44 µM
IC (TGI) (HCT-15 (Colon cancer)): 2.84 µM
CC50 (HCT-15 (Colon cancer)): 5.59 µM
EC50 [3]: 2.41 ± 0.5 µM
GI50 (HOP-92 (NSC lung cancer)): 1.37 µM
IC (TGI) (HOP-92 (NSC lung cancer)): 2.77 µM
CC50 (HOP-92 (NSC lung cancer)): 5.61 µM
GI50 (IGROV1 (Ovarian cancer)): 1.69 µM
IC (TGI) (IGROV1 (Ovarian cancer)): 3.28 µM
CC50 (IGROV1 (Ovarian cancer)): 6.35 µM
Growth % of the Most Sensitive Cell Lines (IGROV1 (Ovarian cancer); IGROV1, 1 dose 10 µM): −94.22%
GI50 [4]: 2.02 µM
IC (TGI) [4]: 3.73 µM
CC50 [4]: 6.89 µM
GI50 (TK-10 (Renal cancer)): 1.88 µM
IC (TGI) (TK-10 (Renal cancer)): 3.45 µM
CC50 (TK-10 (Renal cancer)): 6.32 µM
IC (TGI) (Leukemia subpanel): 5.18 µM
GI50 (Leukemia subpanel): 1.48 µM
CC50 (Leukemia subpanel): > 100 µM
GI50 (U251 (CNS cancer)): 1.76 µM
IC (TGI) (U251 (CNS cancer)): 3.26 µM
CC50 (U251 (CNS cancer)): 6.07 µM
GI50 [5]: 1.81 µM
IC (TGI) [5]: 3.35 µM
CC50 [5]: 6.2 µM
IC (TGI) (Colon Cancer subpanel): 3.02 µM
GI50 (Colon Cancer subpanel): 1.51 µM
CC50 (Colon Cancer subpanel): 5.87 µM
Growth % of the Most Sensitive Cell Lines (CAKI-1 (Renal cancer)): −92.49%
GI50 (CAKI-1 (Renal cancer)): 1.81 µM
IC (TGI) (CAKI-1 (Renal cancer)): 3.22 µM
CC50 (CAKI-1 (Renal cancer)): 5.73 µM
GI50 (SNB-19 (CNS cancer)): 1.93 µM
IC (TGI) (SNB-19 (CNS cancer)): 3.44 µM
EC50 (MCF-7 (breast carcinoma)): 1.41 ± 0.1 µM
EC50 [6]: 1.3 ± 0.2 µM
EC50 [7]: 1.75 ± 0.2 µM
EC50 [8]: 1.78 ± 0.1 µM
EC50 [9]: 1.88 ± 0.2 µM
GI50 (SF-295 (CNS cancer)): 1.81 µM
IC (TGI) (SF-295 (CNS cancer)): 3.26 µM
CC50 (SF-295 (CNS cancer)): 5.88 µM
GI50 (CCRF-CEM (Leukemia)): 2.27 µM
IC (TGI) (CCRF-CEM (Leukemia)): 5.63 µM
CC50 (CCRF-CEM (Leukemia)): > 100 µM
GI50 (OVCAR-5 (Ovarian cancer); Homo sapiens): 1.75 µM
IC (TGI) (OVCAR-5 (Ovarian cancer); Homo sapiens): 3.32 µM
GI50 (MOLT-4 (Leukemia)): 1.09 µM
GI50 (SN12C (Renal cancer)): 1.79 µM
IC (TGI) (SN12C (Renal cancer)): 3.31 µM
CC50 (SN12C (Renal cancer)): 6.12 µM

Source: PMC7914897, “Cytotoxic Potential of a-Azepano- and 3-Amino-3,4-SeCo-Triterpenoids” (International Journal of Molecular Sciences, 2021)
